{"source": "patent US20060069132A1", "about": "“Azolecarboxamide herbicides” (priority 2004, published 2006)", "key": {"[1]": {"system": "soybean", "experiment": "Test C pre-/postemergence herbicide test", "assay_type": "in vivo, Glycine max", "how_it_was_run": "(§1)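 Seeds were planted and sprayed preemergence with test chemicals in a non-phytotoxic solvent mixture containing surfactant; postemergence treatments went onto plants 2 to 18 cm tall (1- to 4-leaf stage). After 12 to 14 days in a greenhouse, injury was rated visually against untreated controls on a 0–100 scale.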"}, "[2]": {"system": "johnsongrass", "experiment": "Test C pre-/postemergence herbicide test", "assay_type": "in vivo, Sorghum halepense", "how_it_was_run": "as §1"}, "[3]": {"system": "rice", "experiment": "Test B pre-/postemergence herbicide test", "assay_type": "in vivo, Oryza sativa", "conditions": "for Rice plant response rating (0 to 100 scale) / Plant response rating, Rice: preemergence", "how_it_was_run": "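Plants compared with untreated controls 13–15 days post-treatment and given a visual 0–100 injury score. Applications: preemergence to seeds; postemergence at 1- to 4-leaf (2–18 cm); paddy species flooded, 2-leaf stage. Vehicle non-phytotoxic, surfactant included.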"}, "[4]": {"system": "Surinam grass", "experiment": "Test C pre-/postemergence herbicide test", "assay_type": "in vivo, Urochloa decumbens", "how_it_was_run": "as §1"}, "[5]": {"system": "eastern black nightshade", "experiment": "Test C pre-/postemergence herbicide test", "assay_type": "in vivo, Solanum ptycanthum", "how_it_was_run": "as §1"}, "[6]": {"system": "common (oilseed) sunflower", "experiment": "Test C pre-/postemergence herbicide test", "assay_type": "in vivo, Helianthus annuus", "how_it_was_run": "as §1"}, "[7]": {"system": "woolly cupgrass", "experiment": "Test C pre-/postemergence herbicide test", "assay_type": "in vivo, Eriochloa villosa", "how_it_was_run": "as §1"}, "[8]": {"system": "goosegrass", "experiment": "Test C pre-/postemergence herbicide test", "assay_type": "in vivo, Eleusine indica", "how_it_was_run": "as §1"}, "[9]": {"conditions": "62 g ai/ha, preemergence, scale 0 to 100"}, "[10]": {"conditions": "250 g ai/ha, scale 0-100, preemergence"}, "[11]": {"conditions": "500 g ai/ha, scale 0 to 100 (0 no effect, 100 complete control), visual, 12 to 14 days, preemergence"}, "[12]": {"conditions": "125 g ai/ha, scale 0 (no effect) to 100 (complete control), visual, 12 to 14 days, preemergence"}, "[13]": {"conditions": "125 g ai/ha, 0 = no effect, 100 = complete control"}, "[14]": {"conditions": "500 g ai/ha, visual rating, 0 = no effect, 100 = complete control"}, "[15]": {"conditions": "250 g ai/ha, scale 0 to 100 (0 no effect, 100 complete control), visual, 12 to 14 days, preemergence"}, "[16]": {"conditions": "Preemergence, 500 g ai/ha, scale 0 to 100, 0 no effect, 100 complete control"}}}
{"smiles": "CCNC(=O)c1cccc(NC(=O)c2cc(C3(C)CC3)nn2CC)c1", "note": "[Compound 306]", "values": [{"measurement": "Plant response rating, Soybean", "setting": "[1]; [9]", "result": 5}, {"measurement": "Plant response rating, Soybean", "setting": "[1]; [10]", "result": 15}, {"measurement": "Plant response rating, Soybean", "setting": "[1]; [11]", "result": 40}, {"measurement": "Plant response rating, Johnsongrass", "setting": "[2]; [9]", "result": 40}, {"measurement": "Plant response rating, Johnsongrass", "setting": "[2]; [12]", "result": 60}, {"measurement": "Plant response rating, Johnsongrass", "setting": "[2]; [10]", "result": 80}, {"measurement": "Rice plant response rating (0 to 100 scale)", "setting": "[3]; [13]", "result": 60}, {"measurement": "Plant response rating, Rice", "setting": "[3]; [14]", "result": 80}, {"measurement": "Plant response rating, Surinam Grass", "setting": "[4]; [10]", "result": 40}, {"measurement": "Plant response rating, Surinam Grass", "setting": "[4]; [11]", "result": 95}, {"measurement": "Plant response rating, Nightshade", "setting": "[5]; [9]", "result": 90}, {"measurement": "Plant response rating, Nightshade", "setting": "[5]; [12]", "result": 95}, {"measurement": "Plant response rating, Nightshade", "setting": "[5]; [10]", "result": 100}, {"measurement": "Plant response rating, Nightshade", "setting": "[5]; [11]", "result": 100}, {"measurement": "Plant response rating, Sunflower", "setting": "[6]; [9]", "result": 0}, {"measurement": "Plant response rating, Sunflower", "setting": "[6]; [10]", "result": 0}, {"measurement": "Plant response rating, Sunflower", "setting": "[6]; [11]", "result": 0}, {"measurement": "Plant response rating, Cupgrass, Woolly", "setting": "[7]; [9]", "result": 5}, {"measurement": "Plant response rating, Cupgrass, Woolly", "setting": "[7]; [12]", "result": 15}, {"measurement": "Plant response rating, Cupgrass, Woolly", "setting": "[7]; [10]", "result": 30}, {"measurement": "Plant response rating, Cupgrass, Woolly", "setting": "[7]; [11]", "result": 50}, {"measurement": "Plant response rating, Goosegrass", "setting": "[8]; [9]", "result": 50}, {"measurement": "Plant response rating, Goosegrass", "setting": "[8]; [12]", "result": 70}, {"measurement": "Plant response rating, Goosegrass", "setting": "[8]; [10]", "result": 100}, {"measurement": "Plant response rating, Goosegrass", "setting": "[8]; [11]", "result": 100}]}
{"smiles": "CCN(C)C(=O)c1ccc(F)c(NC(=O)C2CC(C(C)(C)C)=NN2CC)c1", "note": "(racemic) [Compound 307]", "values": [{"measurement": "Plant response rating, Soybean", "setting": "[1]; [9]", "result": 40}, {"measurement": "Plant response rating, Soybean", "setting": "[1]; [10]", "result": 80}, {"measurement": "Plant response rating, Soybean", "setting": "[1]; [11]", "result": 100}, {"measurement": "Plant response rating, Johnsongrass", "setting": "[2]; [9]", "result": 60}, {"measurement": "Plant response rating, Johnsongrass", "setting": "[2]; [12]", "result": 80}, {"measurement": "Plant response rating, Johnsongrass", "setting": "[2]; [10]", "result": 90}, {"measurement": "Plant response rating, Johnsongrass", "setting": "[2]; [11]", "result": 100}, {"measurement": "Rice plant response rating (0 to 100 scale)", "setting": "[3]; [13]", "result": 80}, {"measurement": "Plant response rating, Rice", "setting": "[3]; [14]", "result": 90}, {"measurement": "Plant response rating, Surinam Grass", "setting": "[4]; [9]", "result": 70}, {"measurement": "Plant response rating, Surinam Grass", "setting": "[4]; [10]", "result": 90}, {"measurement": "Plant response rating, Surinam Grass", "setting": "[4]; [11]", "result": 90}, {"measurement": "Plant response rating, Nightshade", "setting": "[5]; [9]", "result": 100}, {"measurement": "Plant response rating, Nightshade", "setting": "[5]; [12]", "result": 100}, {"measurement": "Plant response rating, Nightshade", "setting": "[5]; [10]", "result": 100}, {"measurement": "Plant response rating, Nightshade", "setting": "[5]; [11]", "result": 100}, {"measurement": "Plant response rating, Sunflower", "setting": "[6]; [9]", "result": 0}, {"measurement": "Plant response rating, Sunflower", "setting": "[6]; [10]", "result": 60}, {"measurement": "Plant response rating, Sunflower", "setting": "[6]; [11]", "result": 60}, {"measurement": "Plant response rating, Cupgrass, Woolly", "setting": "[7]; [9]", "result": 5}, {"measurement": "Plant response rating, Cupgrass, Woolly", "setting": "[7]; [12]", "result": 40}, {"measurement": "Plant response rating, Cupgrass, Woolly", "setting": "[7]; [10]", "result": 70}, {"measurement": "Plant response rating, Cupgrass, Woolly", "setting": "[7]; [11]", "result": 85}, {"measurement": "Plant response rating, Goosegrass", "setting": "[8]; [9]", "result": 90}, {"measurement": "Plant response rating, Goosegrass", "setting": "[8]; [12]", "result": 95}, {"measurement": "Plant response rating, Goosegrass", "setting": "[8]; [10]", "result": 100}, {"measurement": "Plant response rating, Goosegrass", "setting": "[8]; [11]", "result": 100}]}
{"smiles": "CCN(C)C(=O)c1cccc(NC(=O)c2cc(C(C)(C)C)nn2CC)c1", "note": "[Compound 48]", "values": [{"measurement": "Plant response rating (0 = no effect, 100 = complete control), Soybean", "setting": "[1]; 62 g ai/ha, preemergence", "result": 0}, {"measurement": "Plant response rating, Soybean", "setting": "[1]; [12]", "result": 0}, {"measurement": "Plant response rating, Soybean", "setting": "[1]; [15]", "result": 0}, {"measurement": "Soybean plant response rating", "setting": "[1]; [16]", "result": 30}, {"measurement": "Plant response rating (0 = no effect, 100 = complete control), Johnsongrass", "setting": "[2]; 62 g ai/ha, preemergence", "result": 10}, {"measurement": "Plant response rating, Johnsongrass", "setting": "[2]; [12]", "result": 20}, {"measurement": "Plant response rating, Johnsongrass", "setting": "[2]; [15]", "result": 50}, {"measurement": "Johnsongrass plant response rating", "setting": "[2]; [16]", "result": 85}, {"measurement": "Rice plant response rating", "setting": "[3]; Preemergence, 500 g ai/ha, scale 0 to 100", "result": 60}, {"measurement": "Plant response rating, Rice", "setting": "[3]; 125 g ai/ha, 0 to 100 scale, 0 is no effect, 100 is complete control", "result": 10}, {"measurement": "Plant response rating (0 = no effect, 100 = complete control), Surinam Grass", "setting": "[4]; 62 g ai/ha, preemergence", "result": 0}, {"measurement": "Plant response rating, Surinam Grass", "setting": "[4]; [12]", "result": 5}, {"measurement": "Plant response rating, Surinam Grass", "setting": "[4]; [15]", "result": 30}, {"measurement": "Surinam Grass plant response rating", "setting": "[4]; [16]", "result": 60}, {"measurement": "Plant response rating (0 = no effect, 100 = complete control), Nightshade", "setting": "[5]; 62 g ai/ha, preemergence", "result": 50}, {"measurement": "Plant response rating, Nightshade", "setting": "[5]; [12]", "result": 80}, {"measurement": "Plant response rating, Nightshade", "setting": "[5]; [15]", "result": 95}, {"measurement": "Nightshade plant response rating", "setting": "[5]; [16]", "result": 100}, {"measurement": "Plant response rating (0 = no effect, 100 = complete control), Sunflower", "setting": "[6]; 62 g ai/ha, preemergence", "result": 0}, {"measurement": "Plant response rating, Sunflower", "setting": "[6]; [12]", "result": 0}, {"measurement": "Plant response rating, Sunflower", "setting": "[6]; [15]", "result": 0}, {"measurement": "Sunflower plant response rating", "setting": "[6]; [16]", "result": 0}, {"measurement": "Plant response rating (0 = no effect, 100 = complete control), Cupgrass, Woolly", "setting": "[7]; 62 g ai/ha, preemergence", "result": 0}, {"measurement": "Plant response rating, Cupgrass, Woolly", "setting": "[7]; [12]", "result": 0}, {"measurement": "Plant response rating, Cupgrass, Woolly", "setting": "[7]; [15]", "result": 5}, {"measurement": "Cupgrass, Woolly plant response rating", "setting": "[7]; [16]", "result": 20}, {"measurement": "Plant response rating (0 = no effect, 100 = complete control), Goosegrass", "setting": "[8]; 62 g ai/ha, preemergence", "result": 20}, {"measurement": "Plant response rating, Goosegrass", "setting": "[8]; [12]", "result": 70}, {"measurement": "Plant response rating, Goosegrass", "setting": "[8]; [15]", "result": 90}, {"measurement": "Goosegrass plant response rating", "setting": "[8]; [16]", "result": 90}]}
